Experimental data reported in patent US20130150325A1, “3-(Fluorovinyl)pyrazoles and their use” (BAYER INTELLECTUAL PROPERTY GMBH, priority 2011, published 2013).

System: HCT 116 cells transfected with a luciferase reporter under the control of an HIF-responsive sequence
Test: HIF-luciferase assay
Assay type: cell-based
Details: Homo sapiens; HCT 116 HIF-luciferase reporter cells, hypoxia chamber (1% O2), 24 h; in some cases means of up to four individual determinations
How it was run: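 Stably transfected HCT 116 cells, plated overnight under normoxia, were exposed to test substances (0-10 μmol/l) for 24 h at 1% O2. Luminescence was read 5 min after adding luciferase reagent, with normoxic cells as background controls. IC50 derived from the hypoxia-driven signal.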

Compound	IC50
Cc1cc(/C(F)=C/c2ccc(OC(F)(F)F)c(Cl)c2)nn1Cc1ccnc(N2CCN(C3CC3)CC2)c1 [Example 103, 1-{4-[(3-{(Z)-2-[3-Chloro-4-(trifluoromethoxy)phenyl]-1-fluorovinyl}-5-methyl-1H-pyrazol-1-yl)-methyl]pyridin-2-yl}-4-cyclopropylpiperazine]	2.5 nM
Cc1cc(/C(F)=C/c2ccc([Si](C)(C)C)cc2)nn1Cc1ccnc(N2CCN(C3CC3)CC2)c1 [Example 106, 1-Cyclopropyl-4-{4-[(3-{(Z)-1-fluoro-2-[4-(trimethylsilyl)phenyl]vinyl}-5-methyl-1H-pyrazol-1-yl)methyl]pyridin-2-yl}piperazine]	0.5 nM
Cc1cc(/C(F)=C/c2ccc(C(O)(C(F)(F)F)C(F)(F)F)cc2)nn1Cc1ccnc(N2CCN(C3CC3)CC2)c1 [Example 108, 2-{4-[(Z)-2-(1-{[2-(4-Cyclopropylpiperazin-1-yl)pyridin-4-yl]methyl}-5-methyl-1H-pyrazol-3-yl)-2-fluorovinyl]phenyl}-1,1,1,3,3,3-hexafluoropropan-2-ol]	3 nM
Cc1cc(/C(F)=C/c2ccc(CN(C(C)C)C(C)C)cc2)nn1Cc1ccnc(N2CCN(C3CC3)CC2)c1 [Example 109, N-{4-[(Z)-2-(1-{[2-(4-Cyclopropylpiperazin-1-yl)pyridin-4-yl]methyl}-5-methyl-1H-pyrazol-3-yl)-2-fluorovinyl]benzyl}-N-isopropylpropane-2-amine]	1.5 nM
Cc1ccc(Cn2nc(/C=C(\F)c3ccc(OC(F)(F)F)cc3)cc2C)cc1 [Example 111, 3-{(Z)-2-Fluoro-2-[4-(trifluoromethoxy)phenyl]vinyl}-5-methyl-1-(4-methylbenzyl)-1H-pyrazole]	40 nM
Cc1cc(/C=C(\F)c2ccc(OC(F)(F)F)cc2)nn1Cc1cccc(N2CC(O)C2)c1 [Example 113, 1-{3-[(3-{(Z)-2-Fluoro-2-[4-(trifluoromethoxy)phenyl]vinyl}-5-methyl-1H-pyrazol-1-yl)methyl]-phenyl}azetidin-3-ol]	4 nM
Cc1cc(/C=C(\F)c2ccc(OC(F)(F)F)cc2)nn1Cc1cccc(C(=O)N2CCCC2)c1 [Example 114, {3-[(3-{(Z)-2-Fluoro-2-[4-(trifluoromethoxy)phenyl]vinyl}-5-methyl-1H-pyrazol-1-yl)methyl]-phenyl}(pyrrolidin-1-yl)methanone]	40 nM
CNc1ccc(Cn2nc(/C=C(\F)c3ccc(OC(F)(F)F)cc3)cc2C)cn1 [Example 117, 5-[(3-{(Z)-2-Fluoro-2-[4-(trifluoromethoxy)phenyl]vinyl}-5-methyl-1H-pyrazol-1-yl)methyl]-N-methylpyridine-2-amine]	30 nM
Cc1cc(/C=C(\F)c2ccc(OC(F)(F)F)cc2)nn1Cc1ccnc(N2CCN(C3CC3)CC2)c1 [Example 120, 1-Cyclopropyl-4-{4-[(3-{(Z)-2-fluoro-2-[4-(trifluoromethoxy)phenyl]vinyl}-5-methyl-1H-pyrazol-1-yl)methyl]pyridin-2-yl}piperazine]	20 nM
Cc1cc(/C=C(\F)c2ccc(OC(F)(F)F)cc2)nn1Cc1cccc(C(C)(C)O)c1 [Example 121, 2-{3-[(3-{(Z)-2-Fluoro-2-[4-(trifluoromethoxy)phenyl]vinyl}-5-methyl-1H-pyrazol-1-yl)methyl]phenyl}propan-2-ol]	40 nM

Next, values leading:

IC50	Compound
0.5 nM	Cc1cc(/C(F)=C/c2ccc(OC(F)(F)F)cc2)nn1Cc1ccnc(N2CCN(C3CC3)CC2)c1 [Example 102, 1-Cyclopropyl-4-{4-[(3-{(Z)-1-fluoro-2-[4-(trifluoromethoxy)phenyl]vinyl}-5-methyl-1H-pyrazol-1-yl)methyl]pyridin-2-yl}piperazine]
0.4 nM	Cc1cc(/C(F)=C/c2ccc(C(C)(C)C(F)(F)F)cc2)nn1Cc1ccnc(N2CCN(C3CC3)CC2)c1 [Example 104, 1-Cyclopropyl-4-{4-[(3-{(Z)-1-fluoro-2-[4-(1,1,1-trifluoro-2-methylpropan-2-yl)phenyl]vinyl}-5-methyl-1H-pyrazol-1-yl)methyl]pyridin-2-yl}piperazine]
0.5 nM	Cc1cc(/C(F)=C/c2ccc(C3(C(F)(F)F)CC3)cc2)nn1Cc1ccnc(N2CCN(C3CC3)CC2)c1 [Example 105, 1-Cyclopropyl-4-[4-({3-[(Z)-1-fluoro-2-{4-[1-(trifluoromethyl)cyclopropyl]phenyl}vinyl]-5-methyl-1H-pyrazol-1-yl}methyl)pyridin-2-yl]piperazine]
0.3 nM	Cc1cc(/C(F)=C/c2ccc(S(F)(F)(F)(F)F)cc2)nn1Cc1ccnc(N2CCN(C3CC3)CC2)c1 [Example 107, 1-Cyclopropyl-4-{4-[(3-{(Z)-1-fluoro-2-[4-(pentafluoro-λ^6-sulphanyl)phenyl]vinyl}-5-methyl-1H-pyrazol-1-yl)methyl]pyridin-2-yl}piperazine]
1 nM	Cc1cc(/C(F)=C/c2ccc(C(C)(C)C)cc2)nn1Cc1ccnc(N2CCN(CC(F)(F)F)CC2)c1 [Example 110, 1-[4-({3-[(Z)-2-(4-tert-Butylphenyl)-1-fluorovinyl]-5-methyl-1H-pyrazol-1-yl}methyl)pyridin-2-yl]-4-(2,2,2-trifluoroethyl)piperazine]
